Test results published in ChEMBL document CHEMBL1201862, “PubChem BioAssay data set” (2004).
The source made the active and inactive calls. For most assays here, no stated cut-off is given here; in the data, actives have a measured EC50 and inactives only a lower limit.

Key:
cells [1] = format: functional, cell-based
cells [2] = format: functional, cell-based; remark: listed apart in the source
[3] = Luminescence Cell-Based Dose Confirmation HTS to Identify Activators of 5'UTR Stem-Loop Driven Alpha-Synuclein mRNA Translation in H4 Neuroglioblastoma Cells. [Related pubchem assays: 1829 (Project Summary), 1814 (Primary HTS)]; format: functional
[4] = Luminescence Cell-Based Dose Response HTS to Identify Activators of Luciferase Translation or Activity in H4 […] Cells. [Related pubchem assays: 1829 (Project Summary), 1814 (Primary HTS)]; format: functional
H4 = test: Luminescence Cell-Based Dose Response HTS to Identify Activators of 5'UTR Stem-Loop Driven Prion Protein mRNA Translation in H4 Neuroglioblastoma Cells. [Related pubchem assays: 1829 (Project Summary), 1814 (Primary HTS)]; format: functional; conditions: Homo sapiens
[5] = target: T1, Rac GTPase-activating protein 1 (Homo sapiens, UniProt Q9H0H5); test: blockers of MgcRacGAP-driven Rac1 GTP hydrolysis – biochemical, ADP Hunter fluorescence, primary and confirmatory, confirmation (AID 624330); format: functional
T1 sequence (Q9H0H5 whole entry): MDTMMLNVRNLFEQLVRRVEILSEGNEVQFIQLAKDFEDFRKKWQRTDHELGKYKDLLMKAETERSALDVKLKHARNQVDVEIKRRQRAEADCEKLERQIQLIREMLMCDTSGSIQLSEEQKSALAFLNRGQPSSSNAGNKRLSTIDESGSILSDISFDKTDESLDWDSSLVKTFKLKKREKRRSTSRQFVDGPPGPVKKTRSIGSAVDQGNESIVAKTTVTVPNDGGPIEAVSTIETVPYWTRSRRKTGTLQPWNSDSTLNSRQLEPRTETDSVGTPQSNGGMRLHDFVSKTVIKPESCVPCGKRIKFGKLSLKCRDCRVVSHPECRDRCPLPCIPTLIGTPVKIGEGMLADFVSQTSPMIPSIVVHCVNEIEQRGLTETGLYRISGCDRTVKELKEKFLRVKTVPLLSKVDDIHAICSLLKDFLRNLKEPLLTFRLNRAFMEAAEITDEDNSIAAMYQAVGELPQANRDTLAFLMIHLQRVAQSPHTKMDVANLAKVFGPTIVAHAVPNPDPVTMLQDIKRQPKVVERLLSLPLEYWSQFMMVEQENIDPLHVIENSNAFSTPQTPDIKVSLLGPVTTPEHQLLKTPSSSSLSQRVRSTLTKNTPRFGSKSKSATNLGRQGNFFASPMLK

[6] = target: T2, Corticotropin-releasing factor receptor 2/Corticotropin-releasing factor-binding protein (Homo sapiens, UniProt P24387+Q13324); test: activators of CRF receptor 2 with binding protein – uHTS hits, confirmation (AID 602473); format: functional; conditions: read-out: EC50_Mean
T2 sequence (Q13324 whole entry): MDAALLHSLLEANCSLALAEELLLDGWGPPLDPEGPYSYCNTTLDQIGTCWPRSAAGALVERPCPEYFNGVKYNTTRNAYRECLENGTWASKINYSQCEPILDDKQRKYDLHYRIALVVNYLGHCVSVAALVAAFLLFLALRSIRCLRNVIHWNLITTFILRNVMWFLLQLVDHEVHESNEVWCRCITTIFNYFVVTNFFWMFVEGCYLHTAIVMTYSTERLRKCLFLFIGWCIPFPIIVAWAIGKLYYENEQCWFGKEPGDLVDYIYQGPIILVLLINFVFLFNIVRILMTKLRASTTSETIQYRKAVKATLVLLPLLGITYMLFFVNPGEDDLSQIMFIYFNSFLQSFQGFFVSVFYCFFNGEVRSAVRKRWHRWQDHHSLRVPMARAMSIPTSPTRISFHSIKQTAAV
T2 sequence (P24387 whole entry): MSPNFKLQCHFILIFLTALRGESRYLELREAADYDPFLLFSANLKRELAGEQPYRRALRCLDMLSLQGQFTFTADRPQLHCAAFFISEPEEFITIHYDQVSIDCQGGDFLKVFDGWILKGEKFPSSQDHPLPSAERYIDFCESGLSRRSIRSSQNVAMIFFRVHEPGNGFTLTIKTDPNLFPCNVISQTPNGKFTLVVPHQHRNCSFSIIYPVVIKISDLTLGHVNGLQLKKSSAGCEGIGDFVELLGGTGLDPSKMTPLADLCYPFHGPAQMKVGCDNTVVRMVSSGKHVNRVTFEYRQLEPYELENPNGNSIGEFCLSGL

[7] = target: T2, Corticotropin-releasing factor receptor 2/Corticotropin-releasing factor-binding protein; test: Dose Response confirmation of uHTS hits for small molecule antagonists of the CRF-binding protein and CRF-R2 receptor complex.; format: functional; conditions: read-out: IC50_Mean
[8] = target: T3, Heat shock factor protein 1 (Mus musculus, UniProt P38532); test: decrease of HSF1-responsive luciferase luminescence – cell-based, NIH3T3, dose retest, confirmation (AID 2382); format: functional;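 further: NIH3T3 fibroblasts with HSF1-driven luciferase reporter stressed by proteasome inhibitor MG132; luminescence from HSF1-driven luciferase expression after 8 hours of MG132 stress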
T3 sequence (P38532 whole entry): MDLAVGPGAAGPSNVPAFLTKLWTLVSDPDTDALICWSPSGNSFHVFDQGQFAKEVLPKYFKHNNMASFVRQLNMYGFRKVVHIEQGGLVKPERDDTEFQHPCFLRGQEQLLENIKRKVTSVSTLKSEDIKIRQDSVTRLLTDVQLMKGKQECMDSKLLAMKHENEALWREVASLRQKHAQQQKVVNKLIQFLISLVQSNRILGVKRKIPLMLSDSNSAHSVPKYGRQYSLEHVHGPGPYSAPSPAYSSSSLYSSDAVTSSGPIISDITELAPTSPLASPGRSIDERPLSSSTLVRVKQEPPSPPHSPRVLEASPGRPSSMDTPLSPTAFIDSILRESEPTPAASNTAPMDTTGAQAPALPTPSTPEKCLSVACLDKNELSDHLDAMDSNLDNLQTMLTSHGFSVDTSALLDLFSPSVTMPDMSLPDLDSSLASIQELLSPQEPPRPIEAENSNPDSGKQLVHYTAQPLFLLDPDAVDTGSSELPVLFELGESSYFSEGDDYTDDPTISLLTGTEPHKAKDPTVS

[9] = viability of HCT116 lacking mutant beta-catenin – cell-based, human colon tumor, dose response (AID 1045); format: functional;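 further: HCT116 colon tumor cells with beta catenin knocked out; cells exposed to compound for 60 hours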
[10] = viability of uninfected HEp-2 cells – cell-based, HTS, cytotoxicity control for RSV inhibitor project, dose response (AID 2410); format: functional; conditions: human respiratory syncytial virus

Row | Compound | EC50 [3] | EC50 [4] | EC50 (H4) | EC50 [6] | IC50 [7] | also measured
1 | O=C1/C(=C/c2nc3ccccc3[nH]2)SC(=S)N1c1ccccc1 | – | – | – | – | – | EC50 (cells [1]): > 350 µM (not active); EC50 (cells [2]): > 350 µM (not active)
2 | O=C1N=C(N2CCCCC2)SC1=C1CCCCC1 | 13.8 µM (active) | 5.25 µM (active) | 21.5 µM (active) | – | – | –
3 | COc1ccc(NC2CCCN(C(=O)C3=NNC(=O)CC3)C2)cc1 (stereo not given) | – | – | – | – | – | IC50 [5]: 120 µM (active)
4 | Fc1ccc(CN2CCN(C(c3ccccc3)c3ccccc3)CC2)cc1 | – | – | – | – | – | IC50 [5]: 236 µM (active)
5 | NC(=O)COC(=O)c1ccc(-c2ccc(O)cc2)cc1 | – | – | – | > 53 µM (inactive) | > 47.1 µM (inactive) | –
6 | O=C(/C=C/c1cccs1)Nc1ccc(N2CCOCC2)c(S(=O)(=O)Nc2ccccc2Cl)c1 | 12 µM (active) | 46.3 µM (active) | 22.2 µM (active) | – | – | –
7 | CCOc1ccccc1N(CC(=O)N/N=C/c1cc(Br)ccc1OC)S(C)(=O)=O | – | – | – | – | – | EC50 (cells [1]): > 350 µM (not active); EC50 (cells [2]): > 350 µM (not active)
8 | N#Cc1nc(Nc2cccc(Cl)c2)c2ncn(C3CCCC3)c2n1 | – | – | – | > 53 µM (inactive) | > 47.1 µM (inactive) | –
9 | O=C(O)c1cc(-c2ccccc2)nc(-c2ccccc2)c1 | – | – | – | > 53 µM (inactive) | > 47.1 µM (inactive) | –
10 | O=C(c1cnn2c1NC(c1ccco1)CC2C(F)(F)F)N1CCN(c2cccc(Cl)c2)CC1 (stereo not given) | > 120 µM (not active) | > 120 µM (not active) | > 120 µM (not active) | – | – | –
11 | O=C1/C(=C/c2ccccn2)SC(=S)N1CCc1ccccc1 | 8.16 µM (active) | 10.9 µM (active) | 19.4 µM (active) | – | – | –
12 | COc1ccc(/C=C2\SC(=O)N(CCNC(=O)C3CCN(S(=O)(=O)c4cccs4)CC3)C2=O)cc1 | 10.2 µM (active) | 36.7 µM (active) | 19.1 µM (active) | – | – | –
13 | COCCCNC(=O)/C(C#N)=C/c1c(N2CCN(c3ccc(OC)cc3)CC2)nc2c(C)cccn2c1=O | – | – | – | – | – | IC50 [5]: 114 µM (active)
14 | Cc1cc(C(c2nnnn2Cc2ccccc2)N2CCOCC2)c(C)n1-c1ccc2c(c1)OCO2 (stereo not given) | 91.8 µM (active) | > 120 µM (not active) | 35.6 µM (active) | – | – | –
15 | COc1ccccc1C(=O)N1CCN(Cc2cccnc2)CC1 | – | – | – | – | – | IC50 [5]: 101 µM (active)
16 | Cc1cccc(-n2cnc3cc(C(=O)N4CCCCC4)ccc32)c1 | 17.9 µM (active) | 7.6 µM (active) | 13.9 µM (active) | – | – | –
17 | Cc1ccc(C)n1NC(=O)c1ccccc1O | – | – | – | > 53 µM (inactive) | > 47.1 µM (inactive) | EC50 [8]: > 195 µM (not active)
18 | Cc1noc(C)c1NC(=O)Nc1ccc2c(c1)C(=O)N([C@H](C)CO)C[C@H](C)[C@@H](CN(C)S(=O)(=O)c1ccc(F)cc1)O2 | – | – | – | > 53 µM (inactive) | > 47.1 µM (inactive) | –
19 | CCn1c(CNc2ccc(OC)cc2)nnc1SCC(=O)c1ccc(OC)cc1 | – | – | – | – | – | EC50 [9]: 470 µM (active)

Row | Compound | EC50 [3] | EC50 [4] | EC50 (H4) | EC50 [6] | IC50 [7] | also measured
20 | Cc1ccc(Cn2nc(-c3ccccc3)nc2-c2ccccc2)cc1 | 5.09 µM (active) | 20 µM (active) | 17.9 µM (active) | – | – | –
21 | O=C(CSc1nc(O)c2ccccc2n1)Nc1ccc(Br)cc1 | – | – | – | – | – | EC50 (cells [1]): > 350 µM (not active); EC50 (cells [2]): > 350 µM (not active)
22 | CCOc1ccccc1C(=O)OCC(=O)NCC1CCCO1 (stereo not given) | – | – | – | > 53 µM (inactive) | > 47.1 µM (inactive) | –
23 | Cc1csc(NC(=O)Cc2ccc(Br)cc2)n1 | – | – | – | > 53 µM (inactive) | > 47.1 µM (inactive) | –
24 | Cc1cn([C@H]2C[C@H](O)[C@@H](CNCC3=Cc4cc(O)ccc4OC3)O2)c(=O)[nH]c1=O | – | – | – | – | – | IC50 [5]: 95.9 µM (active)
25 | N#Cc1cccc(NCC(=O)Nc2ccc3c(c2)OCCO3)c1 | – | – | – | > 53 µM (inactive) | > 47.1 µM (inactive) | –
26 | CN(C)c1ccc(NC(=O)COC(=O)CNC(=O)c2cccs2)cc1 | – | – | – | – | – | IC50 [5]: 45.6 µM (active)
27 | COc1ccc(C2=Nc3ccccc3C2(O)CCN2C(=O)c3ccccc3C2=O)cc1 (stereo not given) | – | – | – | > 53 µM (inactive) | > 47.1 µM (inactive) | –
28 | CN(CCOC(=O)CN1C(=O)c2ccccc2C1=O)C1=NS(=O)(=O)c2ccccc21 | > 120 µM (not active) | 46.8 µM (active) | > 120 µM (not active) | – | – | –
29 | O=C(NCCc1cccnc1)C1CCC(=O)N(Cc2ccc(Cl)cc2)C1 (stereo not given) | – | – | – | > 53 µM (inactive) | > 47.1 µM (inactive) | –
30 | N#C/C(=C\C1CC=CCC1)c1nc2ccccc2[nH]1 (stereo not given) | 21.9 µM (active) | 26.3 µM (active) | 23.7 µM (active) | – | – | CC50 [10]: 23.4 µM (active)
31 | CC(C)(C)c1cc(C(=O)N2CCN(c3ncccn3)CC2)ccn1 | – | – | – | – | – | EC50 (cells [1]): > 350 µM (not active); EC50 (cells [2]): > 350 µM (not active)
32 | Cc1ccc(OCc2cc(C(=O)N3CCN(CC(=O)NC(C)C)CC3)no2)cn1 | – | – | – | > 53 µM (inactive) | > 47.1 µM (inactive) | –
33 | COc1ccc(NC2CCCN(C(=O)CCN3CCCO3)C2)cc1 (stereo not given) | – | – | – | – | – | IC50 [5]: 128 µM (active)
34 | CCOC(=O)c1cc(C)sc1NC(=O)CCC(=O)O | – | – | – | > 53 µM (inactive) | > 47.1 µM (inactive) | –
35 | Cc1cc(OC(C)C(=O)NNC(=O)Nc2ccc(F)cc2F)cc(C)c1Cl (stereo not given) | – | – | – | – | – | EC50 (cells [1]): > 350 µM (not active); EC50 (cells [2]): > 350 µM (not active)
36 | c1ccc(-c2ccc(OCCOCCn3cncn3)cc2)cc1 | 30.9 µM (active) | 45.9 µM (active) | 17.2 µM (inconclusive) | – | – | –
37 | CCn1cc(Br)c(-c2nc3ccccc3c(=O)n2N)n1 | 102 µM (active) | 8.16 µM (active) | > 120 µM (not active) | – | – | –
